Measurements taken from publication PMC10482975 (Nature Communications, 2023).
Positions count from the first letter of the chain named. Read-outs that look alike come from different tables or passages of the source.

Legend:
M4 mAChR W435A = biological target: T1, M4 mAChR W435A (Homo sapiens, UniProt P08173, W435A); assay: [3H]-NMS radioligand dissociation binding, M4 mAChR W435A; set-up: [3H]-NMS binding remaining vs Total Binding, MEAN: unit not given here; details: for [3H]-NMS binding remaining vs Total Binding, MEAN: M4 W435A mAChR
T1 construct: expressed in transfected cells
T1 sequence (P08173 1-479 W435A): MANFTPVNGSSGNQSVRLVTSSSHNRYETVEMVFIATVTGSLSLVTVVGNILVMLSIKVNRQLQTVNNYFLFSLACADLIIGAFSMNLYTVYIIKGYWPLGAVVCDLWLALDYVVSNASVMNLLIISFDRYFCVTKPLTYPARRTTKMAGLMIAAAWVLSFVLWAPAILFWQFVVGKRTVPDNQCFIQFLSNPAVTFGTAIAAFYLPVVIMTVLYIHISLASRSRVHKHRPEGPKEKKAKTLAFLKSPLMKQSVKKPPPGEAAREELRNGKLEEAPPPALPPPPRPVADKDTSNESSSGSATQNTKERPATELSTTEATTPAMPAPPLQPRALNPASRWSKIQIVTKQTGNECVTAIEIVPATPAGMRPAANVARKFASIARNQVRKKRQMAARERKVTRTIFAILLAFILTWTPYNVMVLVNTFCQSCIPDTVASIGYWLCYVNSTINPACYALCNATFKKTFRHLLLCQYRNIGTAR
Method: (§1) Flp-In Chinese hamster ovary (CHO) (Thermo Fisher Scientific) cells stably expressing mAChR WTs or mutant constructs were cultured in Dulbecco’s modified Eagle’s medium (DMEM, Invitrogen) containing 5% foetal bovine serum (FBS; ThermoTrace) and […] of hygromycin (Roche) in a humidified incubator (37 °C, 5% CO2). Upon reaching confluence, media was removed, cells were washed with phosphate buffered saline (PBS) and harvested from tissue culture flasks using versene (PBS with 0.2 g EDTA). Cells were then pelleted through centrifugation at 350 × g for three minutes followed by resuspension in DMEM + 5% FBS. Cells were then either plated for an assay or reseeded into a tissue culture flask.

M4 mAChR Y92A = biological target: T2, M4 mAChR Y92A (Homo sapiens, UniProt P08173, Y92A); assay: [3H]-NMS radioligand dissociation binding, M4 mAChR Y92A; set-up: [3H]-NMS binding remaining vs Total Binding, MEAN: unit not given here; details: for [3H]-NMS binding remaining vs Total Binding, MEAN: M4 Y92A mAChR
T2 construct: expressed in transfected cells
T2 sequence (P08173 1-479 Y92A): T1 sequence (P08173 1-479 W435A) with Y92A, A435W
Method: as §1

M1 mAChR WT = biological target: T3, M1 mAChR WT (Homo sapiens, UniProt P11229); format: binding
T3 construct: expressed in transfected cells
T3 sequence (P11229 1-460): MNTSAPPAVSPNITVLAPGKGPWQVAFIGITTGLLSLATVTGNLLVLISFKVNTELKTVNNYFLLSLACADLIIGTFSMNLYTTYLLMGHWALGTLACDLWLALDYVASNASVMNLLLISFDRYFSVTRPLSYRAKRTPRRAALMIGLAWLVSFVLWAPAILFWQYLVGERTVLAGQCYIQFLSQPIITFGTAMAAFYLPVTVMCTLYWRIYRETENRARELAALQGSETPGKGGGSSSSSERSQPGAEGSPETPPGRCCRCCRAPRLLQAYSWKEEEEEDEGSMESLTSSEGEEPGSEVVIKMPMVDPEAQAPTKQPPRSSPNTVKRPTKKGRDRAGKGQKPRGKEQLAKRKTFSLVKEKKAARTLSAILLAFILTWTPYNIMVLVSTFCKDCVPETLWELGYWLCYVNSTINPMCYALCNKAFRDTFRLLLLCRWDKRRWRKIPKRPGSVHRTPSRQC
Method: as §1

[1] = + 10uM LY2033 (Allosteric Ligand), Time 0 min (Total Binding)
[2] = + 10uM LY2033 (Allosteric Ligand), Time 30 min
[3] = + 10uM LY2033 (Allosteric Ligand), Time 60 min
[4] = + 10uM LY2033 (Allosteric Ligand), Time 90 min
[5] = + 10uM LY2033 (Allosteric Ligand), Time 120 min
[6] = + 10uM LY2033 (Allosteric Ligand), Time 180 min
[7] = + 10uM LY2033 (Allosteric Ligand), Time 300 min

## COc1nc2sc(C(=O)NC3CC3)c(N)c2c(C)c1Cl [LY2033298]
M4 mAChR W435A; [1]
  [3H]-NMS binding remaining vs Total Binding, MEAN: 100
M4 mAChR W435A; [2]
  [3H]-NMS binding remaining vs Total Binding, MEAN: 87.6204
M4 mAChR W435A; [3]
  [3H]-NMS binding remaining vs Total Binding, MEAN: 83.5904
M4 mAChR W435A; [4]
  [3H]-NMS binding remaining vs Total Binding, MEAN: 79.4133
M4 mAChR W435A; [5]
  [3H]-NMS binding remaining vs Total Binding, MEAN: 78.9331
M4 mAChR W435A; [6]
  [3H]-NMS binding remaining vs Total Binding, MEAN: 67.1451
M4 mAChR W435A; [7]
  [3H]-NMS binding remaining vs Total Binding, MEAN: 50.6666
M4 mAChR Y92A; [1]
  [3H]-NMS binding remaining vs Total Binding, MEAN: 100
M4 mAChR Y92A; [2]
  [3H]-NMS binding remaining vs Total Binding, MEAN: 108.824
M4 mAChR Y92A; [3]
  [3H]-NMS binding remaining vs Total Binding, MEAN: 96.2598
M4 mAChR Y92A; [4]
  [3H]-NMS binding remaining vs Total Binding, MEAN: 94.6146
M4 mAChR Y92A; [5]
  [3H]-NMS binding remaining vs Total Binding, MEAN: 83.2371
M4 mAChR Y92A; [6]
  [3H]-NMS binding remaining vs Total Binding, MEAN: 74.311
M4 mAChR Y92A; [7]
  [3H]-NMS binding remaining vs Total Binding, MEAN: 49.3255
M1 mAChR WT; 10uM Atr + 30uM LY2033, 10 min
  [3H]-NMS binding remaining (0 min = 100), MEAN: 100.177
M1 mAChR WT; 10uM Atr + 30uM LY2033, 20 min
  [3H]-NMS binding remaining (0 min = 100), MEAN: 95.7624
M1 mAChR WT; 10uM Atr + 30uM LY2033, 40 min
  [3H]-NMS binding remaining (0 min = 100), MEAN: 97.3513
M1 mAChR WT; 10uM Atr + 30uM LY2033, 60 min
  [3H]-NMS binding remaining (0 min = 100), MEAN: 85.8605
M1 mAChR WT; 10uM Atr + 30uM LY2033, 90 min
  [3H]-NMS binding remaining (0 min = 100), MEAN: 73.8671
M1 mAChR WT; 10uM Atr + 30uM LY2033, 120 min
  [3H]-NMS binding remaining (0 min = 100), MEAN: 62.858

## C[N+](C)(C)CC#CCOC1=NOCC1 [iperoxo]
M1 mAChR WT; 10uM Atr + 10 μM Iperoxo, 10 min
  [3H]-NMS binding remaining (0 min = 100), MEAN: 87.0617
M1 mAChR WT; 10uM Atr + 10 μM Iperoxo, 20 min
  [3H]-NMS binding remaining (0 min = 100), MEAN: 66.0557
M1 mAChR WT; 10uM Atr + 10 μM Iperoxo, 40 min
  [3H]-NMS binding remaining (0 min = 100), MEAN: 41.8921
M1 mAChR WT; 10uM Atr + 10 μM Iperoxo, 60 min
  [3H]-NMS binding remaining (0 min = 100), MEAN: 27.7899
M1 mAChR WT; 10uM Atr + 10 μM Iperoxo, 90 min
  [3H]-NMS binding remaining (0 min = 100), MEAN: 20.387
M1 mAChR WT; 10uM Atr + 10 μM Iperoxo, 120 min
  [3H]-NMS binding remaining (0 min = 100), MEAN: 14.5109

## CCCCCCOc1nsnc1C1=CCCN(C)C1 [xanomeline]
M4 mAChR W435A; +100uM Xano, Time 30 min
  [3H]-NMS binding remaining vs Total Binding, MEAN: 96.9648
M4 mAChR W435A; +100uM Xano, Time 60 min
  [3H]-NMS binding remaining vs Total Binding, MEAN: 87.005
M4 mAChR W435A; +100uM Xano, Time 90 min
  [3H]-NMS binding remaining vs Total Binding, MEAN: 77.1921
M4 mAChR W435A; +100uM Xano, Time 120 min
  [3H]-NMS binding remaining vs Total Binding, MEAN: 74.9315
M4 mAChR W435A; +100uM Xano, Time 180 min
  [3H]-NMS binding remaining vs Total Binding, MEAN: 64.2361
M4 mAChR W435A; +100uM Xano, Time 300 min
  [3H]-NMS binding remaining vs Total Binding, MEAN: 31.9462
M4 mAChR W435A; M4 mAChR W435A mutant
  effect on [3H]-NMS dissociation (in words): loss in xanomeline modulation
M4 mAChR Y92A; +100uM Xano, Time 30 min
  [3H]-NMS binding remaining vs Total Binding, MEAN: 84.6188
M4 mAChR Y92A; +100uM Xano, Time 60 min
  [3H]-NMS binding remaining vs Total Binding, MEAN: 76.9087
M4 mAChR Y92A; +100uM Xano, Time 90 min
  [3H]-NMS binding remaining vs Total Binding, MEAN: 63.0845
M4 mAChR Y92A; +100uM Xano, Time 120 min
  [3H]-NMS binding remaining vs Total Binding, MEAN: 54.6505
M4 mAChR Y92A; +100uM Xano, Time 300 min
  [3H]-NMS binding remaining vs Total Binding, MEAN: 15.7486
M4 mAChR Y92A; M4 mAChR Y92A mutant
  effect on [3H]-NMS dissociation (in words): loss in xanomeline modulation
